Results: US10011602B2, “Immunological reagents and uses therefor” (THE UNIVERSITY OF MELBOURNE, priority 2012, dated 2018)

How the values were obtained:
Jurkat.MAIT cells = experiment: Activation of Jurkat.MAIT cells (CD69) with C1R antigen presenting cells expressing MR1; type: cell-based, human
Description: Jurkat cells transduced with a MAIT TCR comprising the TRAV1-2+TRAJ33 invariant α chain, and a TRBV6-1 β chain were tested for activation by addition of Salmonella supernatant to C1R antigen presenting cells expressing MR1 for 16 hours. Jurkat.MAIT cells were subsequently stained with PE-conjugated anti-CD3, and APC-conjugated anti-CD69 antibodies before analysis by flow cytometry. Activation of Jurkat.MAIT cells was measured by an increase in surface CD69 expression. Compounds to be tested for the ability to activate Jurkat.MAIT cells were tested alongside Salmonella supernatant.
A biological assay for the activation of MAIT T cell receptor (TCR)-expressing T cell lines (into which genes encoding the MAIT TCR alpha and beta chains had been introduced), by antigen presenting cells (expressing MR1 on the cell surface) infected with the bacterium Salmonella typhimurium has been established. This assay measures the increase in expression of the cell surface activation marker, CD69, upon activation of MAIT T cells.

Jurkat.LC13 line = experiment: Activation of control Jurkat.LC13 line in the presence of C1R.HLA-B8 cells; type: cell-based, human
From the text: Next, to formally establish whether 7-hydroxy-6-methyl-8-ribityl lumazine and/or its precursor, 6,7-dimethyl-8-ribityl lumazine, could activate MAIT cells, both compounds were chemically synthesized their ability to enable MR1 refolding and to activate Jurkat.MAIT cells and human MAIT cells from peripheral blood tested. […] Thus, direct precursors of riboflavin biosynthesis activate MAIT cells.

[1] = system: human MAIT cells from peripheral blood; experiment: Activation of primary MAIT cells from PBMCs (CD69, IFN-γ, TNF-α); type: cell-based; details: PBMCs with C1R cells expressing MR1
Description: PBMCs from a healthy donor were mixed with C1R-huMR1 cells (10^5 each/well). Salmonella SL1344 supernatant (2 μl) from cultures grown in LB supplemented with 25 μg/ml streptomycin (Sigma) for 4 hr at 37° C., or compounds (35A, 36A, 48G: 25 μg/ml final, A-6FP: 10 μM final) or PMA (2 ng/ml+ionomycin (1 ng/ml) added in a total volume of 220 μl RF-10, and incubated overnight at 37° C. Cells were stained with anti-CD3-PE-Cy7 (eBioscience, 20 μg/ml), anti-CD4-APC-Cy7 (Biolegend, 1.7 μg/ml), anti-CD161-APC (Miltenyi Biotec, 1:50), FITC-conjugated D5 (anti-MAIT TCR, 10 μg/ml) and either anti-CD69-PE (BD Biosciences 1:50), anti-IFNγ-PE (BD Pharmingen 10 μg/ml) or anti-TNFα-PE (BD Pharmingen 10 μg/ml), and analyzed by flow cytometry using a Canto II cytometer and Diva software. For intracellular cytokine staining, brefeldin A (10 μg/ml) was added to the assay after the first 1 hr and the incubation allowed to proceed overnight. Cells were fixed with 1% parformaldehyde after staining for surface markers and permeabilised with 1% saponin during cytokine stains. MAIT cells were defined as CD3^+, CD4^−, CD161^+, D5^+ after gating on PBMCs using FSC and SSC.
PBMCs from a healthy donor were mixed with C1R cells expressing MR1 (10^5 each/well). Salmonella SL1344 supernatant (2 μl) from cultures grown in LB supplemented with 25 μg/ml streptomycin (Sigma) for 4 hr at 37° C., or compounds (RL-6,7-diMe, RL-6-Me-7-OH, 6FP: 76.2 μM final, rRL-6-HM: 0.152 μM final) or PMA (2 ng/ml+ionomycin (1 ng/ml) added in a total volume of 220 μl RF-10, and incubated overnight at 37° C. Cells were stained with anti-CD3-PE-Cy7 (eBioscience, 20 μg/ml), anti-CD4-APC-Cy7 (Biolegend, 1.7 μg/ml), anti-CD161-APC (Miltenyi Biotec, 1:50), FITC-conjugated D5 (anti-MAIT TCR, 10 μg/ml) and either anti-CD69-PE (BD Biosciences 1:50), anti-IFNγ-PE (BD Pharmingen 10 μg/ml) or anti-TNFα-PE (BD Pharmingen 10 μg/ml), and analyzed by flow cytometry using a Canto II cytometer and Diva software. […] CD69 expression was analysed by flow cytometry. […]

Which results are given for `Cc1nc2c(=O)[nH]c(=O)nc-2n(C[C@H](O)[C@H](O)[C@H](O)CO)c1C` [Compound 1, 6,7-dimethyl-8-D-ribityllumazine]?
Activation of Jurkat.MAIT cells (increase in surface CD69) (Jurkat.MAIT cells): activated; Activation of control Jurkat.LC13 line (Jurkat.LC13 line): failed to activate; Activation of MAIT cells (CD69 upregulation, intracellular IFN-γ and TNF-α) [1]: specifically activated
